According to article PMC4774911, “Biochemical Screening of Five Protein Kinases from Plasmodium falciparum against 14,000 Cell-Active Compounds” (PLoS ONE, 2016):
pKd: −log10 of the molar value. Several values for one entry are separate records, joined by “and”; a condition that tells them apart may be missing. Equal values may be shown once.

Experiments:
Assay in all cases: biochemical
Parameters in all cases: endogenous in cells; host or cells: K562 cell extract; species or system K562 (extract); replicate k of n = 2 (each experiment ID is one independent experiment; two experiment IDs per compound)
Details in all cases: read-out: KDapp
[1] = target: TAOK1 (Homo sapiens, UniProt Q7L7X3)
Sequence of TAOK1 (Q7L7X3 whole entry): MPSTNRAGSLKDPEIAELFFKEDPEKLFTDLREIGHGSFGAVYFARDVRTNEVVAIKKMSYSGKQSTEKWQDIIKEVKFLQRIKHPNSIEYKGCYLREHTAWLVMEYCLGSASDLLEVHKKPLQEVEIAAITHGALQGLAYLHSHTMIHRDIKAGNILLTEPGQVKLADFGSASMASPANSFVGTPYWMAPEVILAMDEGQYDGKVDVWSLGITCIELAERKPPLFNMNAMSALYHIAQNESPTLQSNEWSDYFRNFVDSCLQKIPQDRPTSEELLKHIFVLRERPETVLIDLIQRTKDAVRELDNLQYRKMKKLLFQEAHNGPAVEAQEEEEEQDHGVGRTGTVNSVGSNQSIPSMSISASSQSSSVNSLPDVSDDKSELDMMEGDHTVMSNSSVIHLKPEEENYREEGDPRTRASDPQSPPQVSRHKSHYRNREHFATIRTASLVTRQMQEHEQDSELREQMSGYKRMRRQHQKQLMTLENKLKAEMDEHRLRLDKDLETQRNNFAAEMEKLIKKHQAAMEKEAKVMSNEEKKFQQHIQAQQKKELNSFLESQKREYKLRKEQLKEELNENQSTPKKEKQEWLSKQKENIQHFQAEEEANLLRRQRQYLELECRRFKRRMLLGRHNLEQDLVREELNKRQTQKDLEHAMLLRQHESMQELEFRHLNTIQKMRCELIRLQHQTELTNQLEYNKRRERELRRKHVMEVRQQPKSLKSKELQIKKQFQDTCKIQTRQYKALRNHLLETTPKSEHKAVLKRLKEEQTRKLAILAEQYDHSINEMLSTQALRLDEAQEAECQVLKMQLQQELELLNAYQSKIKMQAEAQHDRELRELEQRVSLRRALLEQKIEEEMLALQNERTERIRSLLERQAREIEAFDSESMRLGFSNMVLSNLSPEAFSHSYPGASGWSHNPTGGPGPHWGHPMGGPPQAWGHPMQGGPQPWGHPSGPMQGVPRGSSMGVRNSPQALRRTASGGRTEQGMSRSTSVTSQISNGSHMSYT

[2] = target: MAPK6 (Homo sapiens, UniProt Q16659)
[3] = target: CDK5 (Homo sapiens, UniProt Q00535)
Sequence of CDK5 (Q00535 whole entry): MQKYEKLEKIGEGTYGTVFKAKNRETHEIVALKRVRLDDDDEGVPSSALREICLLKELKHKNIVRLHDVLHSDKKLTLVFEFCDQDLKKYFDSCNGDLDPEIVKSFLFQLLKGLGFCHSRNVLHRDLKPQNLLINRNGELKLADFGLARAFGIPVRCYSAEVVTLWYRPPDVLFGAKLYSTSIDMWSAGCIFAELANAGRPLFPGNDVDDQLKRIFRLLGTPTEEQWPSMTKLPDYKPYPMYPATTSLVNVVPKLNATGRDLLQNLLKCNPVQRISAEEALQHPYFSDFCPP

[4] = target: ERN1 (Homo sapiens, UniProt O75460)
[5] = target: MAP3K1 (Homo sapiens, UniProt Q13233)
Sequence of MAP3K1 (Q13233 whole entry): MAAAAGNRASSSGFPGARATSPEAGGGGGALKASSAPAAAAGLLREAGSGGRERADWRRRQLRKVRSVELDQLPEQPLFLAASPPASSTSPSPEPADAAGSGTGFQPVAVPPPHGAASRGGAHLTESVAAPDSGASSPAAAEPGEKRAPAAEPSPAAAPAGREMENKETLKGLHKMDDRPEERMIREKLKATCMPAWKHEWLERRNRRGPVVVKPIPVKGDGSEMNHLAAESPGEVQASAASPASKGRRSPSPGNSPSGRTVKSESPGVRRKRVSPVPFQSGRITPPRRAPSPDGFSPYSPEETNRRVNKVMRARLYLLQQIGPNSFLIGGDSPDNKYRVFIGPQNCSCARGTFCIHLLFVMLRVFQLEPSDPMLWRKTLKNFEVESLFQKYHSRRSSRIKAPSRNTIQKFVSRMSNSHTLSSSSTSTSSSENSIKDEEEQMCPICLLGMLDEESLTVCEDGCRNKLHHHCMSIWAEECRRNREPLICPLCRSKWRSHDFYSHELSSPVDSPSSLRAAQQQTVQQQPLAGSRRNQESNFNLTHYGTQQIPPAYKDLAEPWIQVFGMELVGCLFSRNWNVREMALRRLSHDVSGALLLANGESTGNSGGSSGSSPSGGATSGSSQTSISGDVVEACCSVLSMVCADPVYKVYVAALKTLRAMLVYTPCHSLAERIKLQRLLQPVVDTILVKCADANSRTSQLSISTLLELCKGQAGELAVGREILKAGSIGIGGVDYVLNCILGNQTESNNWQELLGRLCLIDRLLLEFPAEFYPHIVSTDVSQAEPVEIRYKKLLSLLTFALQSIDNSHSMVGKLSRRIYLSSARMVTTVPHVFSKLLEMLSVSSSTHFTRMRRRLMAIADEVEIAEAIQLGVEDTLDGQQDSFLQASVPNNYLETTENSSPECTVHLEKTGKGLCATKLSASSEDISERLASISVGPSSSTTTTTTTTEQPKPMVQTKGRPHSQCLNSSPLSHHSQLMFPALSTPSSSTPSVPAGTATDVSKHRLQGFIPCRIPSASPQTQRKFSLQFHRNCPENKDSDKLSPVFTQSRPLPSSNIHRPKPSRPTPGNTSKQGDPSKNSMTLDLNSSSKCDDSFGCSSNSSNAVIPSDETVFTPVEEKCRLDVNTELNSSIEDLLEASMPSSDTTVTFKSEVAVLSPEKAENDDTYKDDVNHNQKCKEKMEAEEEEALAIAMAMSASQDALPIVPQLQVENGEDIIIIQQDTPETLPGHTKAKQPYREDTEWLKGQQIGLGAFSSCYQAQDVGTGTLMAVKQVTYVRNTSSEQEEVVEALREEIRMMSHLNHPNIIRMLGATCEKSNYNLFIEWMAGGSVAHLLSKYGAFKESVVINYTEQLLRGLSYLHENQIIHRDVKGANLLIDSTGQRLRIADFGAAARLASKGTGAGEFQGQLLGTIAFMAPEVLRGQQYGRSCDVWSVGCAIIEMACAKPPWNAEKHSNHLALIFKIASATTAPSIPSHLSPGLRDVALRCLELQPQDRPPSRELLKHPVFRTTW

[6] = target: T1, BMPR2 (Homo sapiens, UniProt Q13873)
T1 sequence (Q13873 1-1038): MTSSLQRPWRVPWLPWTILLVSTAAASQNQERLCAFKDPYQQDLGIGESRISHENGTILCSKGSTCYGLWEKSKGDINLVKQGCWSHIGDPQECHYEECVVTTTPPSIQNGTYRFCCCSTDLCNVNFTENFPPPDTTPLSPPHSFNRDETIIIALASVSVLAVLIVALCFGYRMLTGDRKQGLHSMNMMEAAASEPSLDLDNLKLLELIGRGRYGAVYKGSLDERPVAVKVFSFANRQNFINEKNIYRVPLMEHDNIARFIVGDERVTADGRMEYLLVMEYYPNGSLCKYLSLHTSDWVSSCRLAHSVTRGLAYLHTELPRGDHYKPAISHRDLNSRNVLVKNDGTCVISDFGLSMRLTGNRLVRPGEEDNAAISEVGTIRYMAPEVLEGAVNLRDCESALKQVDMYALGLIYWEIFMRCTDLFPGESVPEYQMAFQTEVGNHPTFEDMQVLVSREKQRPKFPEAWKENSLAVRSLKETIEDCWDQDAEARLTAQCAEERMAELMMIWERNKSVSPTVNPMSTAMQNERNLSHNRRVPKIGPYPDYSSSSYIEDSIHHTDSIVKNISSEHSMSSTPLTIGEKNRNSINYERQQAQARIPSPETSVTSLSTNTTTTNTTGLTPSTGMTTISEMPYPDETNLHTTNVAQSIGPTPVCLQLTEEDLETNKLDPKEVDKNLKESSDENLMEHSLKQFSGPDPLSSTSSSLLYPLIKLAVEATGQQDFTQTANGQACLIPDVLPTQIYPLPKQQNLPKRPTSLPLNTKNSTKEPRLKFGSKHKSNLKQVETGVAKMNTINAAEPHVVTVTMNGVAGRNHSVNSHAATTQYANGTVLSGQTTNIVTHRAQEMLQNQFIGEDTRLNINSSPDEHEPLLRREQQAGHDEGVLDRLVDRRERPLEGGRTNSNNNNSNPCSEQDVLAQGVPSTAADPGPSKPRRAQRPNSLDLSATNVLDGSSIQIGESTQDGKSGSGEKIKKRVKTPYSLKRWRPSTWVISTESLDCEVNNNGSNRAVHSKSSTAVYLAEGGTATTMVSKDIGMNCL

[7] = target: PRKACA (Homo sapiens, UniProt P17612)
[8] = target: BMX (Homo sapiens, UniProt P51813)
Sequence of BMX (P51813 whole entry): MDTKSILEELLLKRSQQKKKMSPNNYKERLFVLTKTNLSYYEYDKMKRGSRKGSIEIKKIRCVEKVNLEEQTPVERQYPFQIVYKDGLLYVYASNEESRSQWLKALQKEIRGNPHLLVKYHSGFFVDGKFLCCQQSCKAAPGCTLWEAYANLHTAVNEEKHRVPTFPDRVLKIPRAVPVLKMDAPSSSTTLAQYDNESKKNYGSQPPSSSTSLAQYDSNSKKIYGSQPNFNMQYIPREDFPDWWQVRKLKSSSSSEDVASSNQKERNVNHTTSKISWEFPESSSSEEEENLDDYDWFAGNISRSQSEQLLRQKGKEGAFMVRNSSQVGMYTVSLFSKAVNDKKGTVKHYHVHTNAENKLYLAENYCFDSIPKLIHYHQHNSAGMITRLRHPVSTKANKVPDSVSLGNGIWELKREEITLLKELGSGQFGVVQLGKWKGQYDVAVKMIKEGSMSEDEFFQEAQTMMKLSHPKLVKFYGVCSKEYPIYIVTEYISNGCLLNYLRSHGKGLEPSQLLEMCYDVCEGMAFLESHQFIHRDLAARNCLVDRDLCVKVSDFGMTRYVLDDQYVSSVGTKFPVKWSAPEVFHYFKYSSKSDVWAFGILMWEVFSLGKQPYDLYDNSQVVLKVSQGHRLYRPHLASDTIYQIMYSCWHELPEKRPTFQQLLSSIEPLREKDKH

[9] = target: RPS6KA1 (Homo sapiens, UniProt Q15418)
Sequence of RPS6KA1 (Q15418 whole entry): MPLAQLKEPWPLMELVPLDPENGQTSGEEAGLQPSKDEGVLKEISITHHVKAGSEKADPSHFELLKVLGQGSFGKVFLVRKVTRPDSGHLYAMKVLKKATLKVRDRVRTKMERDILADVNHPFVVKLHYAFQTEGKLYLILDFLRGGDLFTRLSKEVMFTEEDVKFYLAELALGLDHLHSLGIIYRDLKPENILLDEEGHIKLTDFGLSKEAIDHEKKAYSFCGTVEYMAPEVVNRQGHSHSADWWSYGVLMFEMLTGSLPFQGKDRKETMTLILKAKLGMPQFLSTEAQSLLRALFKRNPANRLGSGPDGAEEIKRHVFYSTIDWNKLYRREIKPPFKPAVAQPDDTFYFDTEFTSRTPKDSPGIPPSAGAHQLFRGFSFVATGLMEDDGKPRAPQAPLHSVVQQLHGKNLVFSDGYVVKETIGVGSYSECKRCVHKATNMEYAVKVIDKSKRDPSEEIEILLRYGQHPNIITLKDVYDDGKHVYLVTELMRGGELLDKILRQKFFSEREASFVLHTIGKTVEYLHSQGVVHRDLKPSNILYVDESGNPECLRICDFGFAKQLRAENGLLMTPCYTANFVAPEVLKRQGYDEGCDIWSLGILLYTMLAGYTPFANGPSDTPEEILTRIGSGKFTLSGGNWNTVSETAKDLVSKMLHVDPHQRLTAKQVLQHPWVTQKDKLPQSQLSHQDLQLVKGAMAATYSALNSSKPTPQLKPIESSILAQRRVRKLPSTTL

[10] = target: STK38 (Homo sapiens, UniProt Q15208)
Sequence of STK38 (Q15208 whole entry): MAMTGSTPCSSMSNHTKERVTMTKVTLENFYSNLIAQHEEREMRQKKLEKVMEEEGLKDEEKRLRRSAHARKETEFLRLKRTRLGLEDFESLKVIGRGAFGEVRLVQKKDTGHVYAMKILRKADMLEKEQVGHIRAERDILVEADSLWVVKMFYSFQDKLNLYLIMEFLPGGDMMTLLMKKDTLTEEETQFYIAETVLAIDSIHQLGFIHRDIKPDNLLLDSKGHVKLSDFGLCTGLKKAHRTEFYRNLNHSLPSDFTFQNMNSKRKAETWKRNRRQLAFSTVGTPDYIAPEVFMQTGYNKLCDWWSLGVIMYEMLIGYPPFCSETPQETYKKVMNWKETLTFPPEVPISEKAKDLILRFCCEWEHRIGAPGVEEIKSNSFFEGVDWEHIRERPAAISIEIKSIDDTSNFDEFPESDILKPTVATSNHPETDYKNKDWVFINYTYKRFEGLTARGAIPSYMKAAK

[11] = target: CDC2 (Homo sapiens, UniProt P06493)
Sequence of CDC2 (P06493 whole entry): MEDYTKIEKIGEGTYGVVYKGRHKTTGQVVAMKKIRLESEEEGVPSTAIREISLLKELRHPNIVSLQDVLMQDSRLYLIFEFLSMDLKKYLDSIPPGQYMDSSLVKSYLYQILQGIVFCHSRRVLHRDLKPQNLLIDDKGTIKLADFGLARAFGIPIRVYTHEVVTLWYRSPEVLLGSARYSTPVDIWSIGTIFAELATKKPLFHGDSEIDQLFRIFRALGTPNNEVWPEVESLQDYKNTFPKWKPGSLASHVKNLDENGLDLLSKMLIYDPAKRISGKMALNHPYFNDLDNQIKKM

Structure (SMILES)	pKd [1]	pKd [2]	pKd [3]	pKd [4]	pKd [5]	pKd [6]	pKd [7]	pKd [8]	pKd [9]	pKd [10]	pKd [11]
CN(C)CC(O)COc1ccc(Nc2ncc([N+](=O)[O-])c(Nc3ccccc3O)n2)cc1.O=C(O)C(F)(F)F (centres unmarked) [TCMDC-141399]	5.37	6.61									
CN1CCN(c2ccc(Nc3ncc(C#N)c(Nc4ccccc4C(N)=O)n3)cc2)CC1.Cl [TCMDC-134116]			7.39 and 7.18	6.90	6.17	5.46 and 5.32	5.88	6.55	7.02	6.51 and 6.60	5.92
